{
  "source": "paper PMC11169512",
  "about": "“Structural basis for urate recognition and apigenin inhibition of human GLUT9” (Nature Communications, 2024)",
  "assay_type_in_all_cases": "binding",
  "key": {"GLUT9 [1]": {"target": "T1, GLUT9 (Homo sapiens, UniProt Q9NRM0)", "T1 construct": "gene SLC2A9; full length human SLC2A9, N-terminal twin strep and FLAG tag", "T1 sequence (Q9NRM0 1-540)": "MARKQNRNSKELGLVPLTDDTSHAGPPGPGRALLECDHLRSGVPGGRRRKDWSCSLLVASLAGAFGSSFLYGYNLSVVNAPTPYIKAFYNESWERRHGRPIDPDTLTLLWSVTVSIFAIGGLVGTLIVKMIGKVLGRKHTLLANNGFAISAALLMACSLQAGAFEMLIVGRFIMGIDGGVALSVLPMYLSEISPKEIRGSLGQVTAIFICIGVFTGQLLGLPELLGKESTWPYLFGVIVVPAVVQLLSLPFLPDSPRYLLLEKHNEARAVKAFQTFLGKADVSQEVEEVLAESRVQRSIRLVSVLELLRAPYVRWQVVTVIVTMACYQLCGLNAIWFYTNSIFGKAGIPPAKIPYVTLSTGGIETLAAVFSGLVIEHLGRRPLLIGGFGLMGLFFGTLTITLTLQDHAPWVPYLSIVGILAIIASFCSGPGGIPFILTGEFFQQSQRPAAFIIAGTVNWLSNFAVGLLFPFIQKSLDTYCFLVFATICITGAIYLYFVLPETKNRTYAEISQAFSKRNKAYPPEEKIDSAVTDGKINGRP", "test": "cryo-EM structure ([…] Å), MST Kd; patch clamp IC50 […]"}, "GLUT9 [2]": {"target": "T2, GLUT9 (Homo sapiens, UniProt Q9NRM0, W336A)", "T2 construct": "gene SLC2A9; full length human SLC2A9, N-terminal twin strep and FLAG tag", "T2 sequence (Q9NRM0 1-540 W336A)": "T1 sequence (Q9NRM0 1-540) with W336A", "test": "MST with purified protein"}, "GLUT9 [3]": {"target": "T3, GLUT9 (Homo sapiens, UniProt Q9NRM0, Y327A)", "T3 construct": "gene SLC2A9; full length human SLC2A9, N-terminal twin strep and FLAG tag", "T3 sequence (Q9NRM0 1-540 Y327A)": "T1 sequence (Q9NRM0 1-540) with Y327A", "test": "MST with purified protein"}, "GLUT9 [4]": {"target": "T4, GLUT9 (Homo sapiens, UniProt Q9NRM0, N458A)", "T4 construct": "gene SLC2A9; full length human SLC2A9, N-terminal twin strep and FLAG tag", "T4 sequence (Q9NRM0 1-540 N458A)": "T1 sequence (Q9NRM0 1-540) with N458A", "test": "MST with purified protein"}, "GLUT9 [5]": {"target": "T5, GLUT9 (Homo sapiens, UniProt Q9NRM0, C427A)", "T5 construct": "gene SLC2A9; full length human SLC2A9, N-terminal twin strep and FLAG tag", "T5 sequence (Q9NRM0 1-540 C427A)": "T1 sequence (Q9NRM0 1-540) with C427A", "test": "MST with purified protein"}, "GLUT9 [6]": {"target": "T6, GLUT9 (Homo sapiens, UniProt Q9NRM0, N333A)", "T6 construct": "gene SLC2A9; full length human SLC2A9, N-terminal twin strep and FLAG tag", "T6 sequence (Q9NRM0 1-540 N333A)": "T1 sequence (Q9NRM0 1-540) with N333A", "test": "MST with purified protein"}, "GLUT9 [7]": {"target": "T1, GLUT9", "test": "cryo-EM structure ([…] Å), MST Kd; patch clamp transport current"}, "GLUT9 [8]": {"target": "T7, GLUT9 (Homo sapiens, UniProt Q9NRM0, Y327Q)", "T7 construct": "gene SLC2A9; full length human SLC2A9, N-terminal twin strep and FLAG tag", "T7 sequence (Q9NRM0 1-540 Y327Q)": "T1 sequence (Q9NRM0 1-540) with Y327Q", "test": "MST with purified protein"}, "GLUT9 [9]": {"target": "T8, GLUT9 (Homo sapiens, UniProt Q9NRM0, W336F)", "T8 construct": "gene SLC2A9; full length human SLC2A9, N-terminal twin strep and FLAG tag", "T8 sequence (Q9NRM0 1-540 W336F)": "T1 sequence (Q9NRM0 1-540) with W336F", "test": "MST with purified protein"}, "GLUT9 [10]": {"target": "T9, GLUT9 (Homo sapiens, UniProt Q9NRM0, E364A)", "T9 construct": "gene SLC2A9; full length human SLC2A9, N-terminal twin strep and FLAG tag", "T9 sequence (Q9NRM0 1-540 E364A)": "T1 sequence (Q9NRM0 1-540) with E364A", "test": "MST with purified protein"}},
  "note": "Substitutions are numbered along the chain they refer to.",
  "data": [
    {"compound": "O=c1cc(-c2ccc(O)cc2)oc2cc(O)cc(O)c12", "note": "[API, apigenin]", "values": [
      {"measurement": "Kd", "setting": "GLUT9 [1]", "value": "0.5 ± 0.1", "unit": "µM"},
      {"measurement": "Kd", "setting": "GLUT9 [2]", "value": "1.3 ± 0.3", "unit": "µM"},
      {"measurement": "Kd", "setting": "GLUT9 [3]", "value": "2.2 ± 0.7", "unit": "µM"},
      {"measurement": "Kd", "setting": "GLUT9 [4]", "value": "4.1 ± 1.1", "unit": "µM"},
      {"measurement": "Kd", "setting": "GLUT9 [5]", "value": "1 ± 0.2", "unit": "µM"}
    ]},
    {"compound": "O=c1[nH]c(=O)c2[nH]c(=O)[nH]c2[nH]1", "note": "[UA, urate]", "values": [
      {"measurement": "Kd", "setting": "GLUT9 [6]", "value": "472 ± 52.2", "unit": "µM"},
      {"measurement": "Kd", "setting": "GLUT9 [7]", "value": "231 ± 17.1", "unit": "µM"},
      {"measurement": "Kd", "setting": "GLUT9 [8]", "value": "867 ± 168", "unit": "µM"},
      {"measurement": "Kd", "setting": "GLUT9 [9]", "value": "361 ± 80.3", "unit": "µM"},
      {"measurement": "Kd", "setting": "GLUT9 [10]", "value": "681 ± 126", "unit": "µM"}
    ]}
  ]
}
